{"source": "patent EP0074411B1", "about": "“ASCORBIC ACID DERIVATIVES” (SANTEN PHARMACEUTICAL CO., LTD., priority 1981, dated 1982)", "system": "ddY-SPF strain male mouse", "experiment": "Acute toxicity test", "assay_type": "in vivo", "settings": "ddY-SPF strain male mouse (weight: 25 to 30 g); administered orally as 0.5% tragacanth suspension", "description": "Acute toxicity test • Acute toxicity of 3,6-0,0' - dipivaloyl - L - ascorbic acid of this invention is shown below. • Animal: ddY-SPF strain male mouse (weight: 25 to 30 g) • Method of administration: The compound is administered orally as 0.5% tragacanth suspension. • Acute toxicity: LDso 5000 mg/kg."}
{"compound": "CC(C)(C)C(=O)OC[C@H](O)[C@H]1OC(=O)C(O)=C1OC(=O)C(C)(C)C", "note": "[3,6-0,0'-Dipivaloyl-L-ascorbic acid]", "values": [{"measurement": "Acute toxicity: LDso", "value": 5000, "unit": "mg/kg"}]}
